Measurements published in ChEMBL document CHEMBL1201862, “PubChem BioAssay data set” (2004).
Where “and” joins values, the source holds several entries; their conditions need not be identical. Equal entries are not always repeated.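 Results reflect a 48-hour exposure of cells in 96-well plates to compound at five concentrations. The concentration for 50% growth inhibition is given as GI50.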 Calls of active or inactive are those of the source. Rule as the data show it: active = GI50 up to about 1.1 µM and inactive = higher.

Assays:
Assay in all cases: NCI tumour cell line growth inhibition, 48 h
TK-10 = tested on: TK-10
T47D = tested on: T47D
HOP-92 = tested on: HOP-92
MDA-MB-231 = tested on: MDA-MB-231
HT-29 = tested on: HT-29
NCI-H460 = tested on: NCI-H460
MDA-MB-435 = tested on: MDA-MB-435
HOP-62 = tested on: HOP-62
DU-145 = tested on: DU-145
SF-268 = tested on: SF-268
PC-3 = tested on: PC-3
IGROV-1 = tested on: IGROV-1
M14 = tested on: M14
NCI-H522 = tested on: NCI-H522
Hs-578T = tested on: Hs-578T
OVCAR-8 = tested on: OVCAR-8
OVCAR-5 = tested on: OVCAR-5
Malme-3M = tested on: Malme-3M
MOLT-4 = tested on: MOLT-4
HCT-116 = tested on: HCT-116
NCI/ADR-RES = tested on: NCI/ADR-RES
SW-620 = tested on: SW-620
SN12C = tested on: SN12C
HCT-15 = tested on: HCT-15
RPMI-8226 = tested on: RPMI-8226
K562 = tested on: K562
SK-MEL-28 = tested on: SK-MEL-28
COLO 205 = tested on: COLO 205
NCI-H23 = tested on: NCI-H23
U-251 = tested on: U-251
EKVX = tested on: EKVX
SR = tested on: SR
ACHN = tested on: ACHN
SF-295 = tested on: SF-295
RXF 393 = tested on: RXF 393
UACC-62 = tested on: UACC-62
HL-60 = tested on: HL-60
CAKI-1 = tested on: CAKI-1
MDA-N = tested on: MDA-N
NCI-H226 = tested on: NCI-H226
SK-OV-3 = tested on: SK-OV-3
786-0 = tested on: 786-0
SK-MEL-2 = tested on: SK-MEL-2
OVCAR-3 = tested on: OVCAR-3
SNB-19 = tested on: SNB-19
UO-31 = tested on: UO-31
CCRF-CEM = tested on: CCRF-CEM
LOX IMVI = tested on: LOX IMVI
UACC-257 = tested on: UACC-257
SF-539 = tested on: SF-539
A549 = tested on: A549
KM12 = tested on: KM12
A498 = tested on: A498
HCC 2998 = tested on: HCC 2998
OVCAR-4 = tested on: OVCAR-4
SK-MEL-5 = tested on: SK-MEL-5
SNB-75 = tested on: SNB-75
MCF7 = tested on: MCF7

O=C1CC(CC(OCc2ccccc2)C(OCc2ccccc2)C(COCc2ccccc2)OCc2ccccc2)CC(=O)N1 (configuration not stated)
GI50 (TK-10): > 100 µM (inactive) and 81.8 µM (inactive)
GI50 (T47D): > 10 µM (inactive)
GI50 (HOP-92): > 100 µM (inactive)
GI50 (MDA-MB-231): 8.67 µM (inactive)
GI50 (HT-29): 4.53 µM (inactive)

CCOC(=O)c1c(N2CCCC2)nsc1Nc1ccc(F)cc1
GI50 (NCI-H460): 27 µM (inactive)
GI50 (MDA-MB-435): 28.8 µM (inactive)
GI50 (HOP-62): 63.5 µM (inactive)
GI50 (DU-145): 45.3 µM (inactive)
GI50 (SF-268): 73.6 µM (inactive)
GI50 (PC-3): 20.4 µM (inactive)
GI50 (IGROV-1): 55 µM (inactive)
GI50 (M14): 48.8 µM (inactive)
GI50 (NCI-H522): 33.5 µM (inactive)
GI50 (Hs-578T): 40.9 µM (inactive)
GI50 (OVCAR-8): 41.4 µM (inactive)
GI50 (OVCAR-5): 25.4 µM (inactive)
GI50 (Malme-3M): 21.9 µM (inactive)
GI50 (MOLT-4): 23.9 µM (inactive)
GI50 (HCT-116): 29.7 µM (inactive)
GI50 (TK-10): 57.7 µM (inactive)
GI50 (NCI/ADR-RES): 34 µM (inactive)
GI50 (SW-620): 40.4 µM (inactive)
GI50 (SN12C): 36.3 µM (inactive)
GI50 (HCT-15): 29.6 µM
GI50 (T47D): 9.57 µM (inactive)
GI50 (RPMI-8226): 36.6 µM (inactive)
GI50 (K562): 29.8 µM (inactive)
GI50 (HOP-92): 28.7 µM (inactive)
GI50 (SK-MEL-28): 54.3 µM (inactive)
GI50 (COLO 205): 48.5 µM (inactive)
GI50 (NCI-H23): 27.1 µM (inactive)
GI50 (U-251): 41.9 µM (inactive)
GI50 (EKVX): 8.38 µM (inactive)
GI50 (SR): 45.7 µM (inactive)
GI50 (ACHN): 31.2 µM (inactive)
GI50 (SF-295): 60 µM (inactive)
GI50 (MDA-MB-231): 39.4 µM (inactive)
GI50 (HT-29): 23.6 µM (inactive)
GI50 (RXF 393): 13.6 µM (inactive)
GI50 (UACC-62): 45.4 µM (inactive)
GI50 (HL-60): 20.4 µM (inactive)
GI50 (CAKI-1): 37.5 µM (inactive)
GI50 (MDA-N): 34.9 µM (inactive)
GI50 (NCI-H226): 60.4 µM (inactive)
GI50 (SK-OV-3): 41 µM (inactive)
GI50 (786-0): 26.1 µM (inactive)
GI50 (SK-MEL-2): 19.2 µM (inactive)
GI50 (OVCAR-3): > 100 µM (inactive)
GI50 (SNB-19): > 100 µM (inactive)
GI50 (UO-31): 16 µM (inactive)
GI50 (CCRF-CEM): 28.1 µM (inactive)
GI50 (LOX IMVI): 53.7 µM (inactive)
GI50 (UACC-257): 45.1 µM (inactive)
GI50 (SF-539): 64.7 µM (inactive)
GI50 (A549): 27.9 µM (inactive)
GI50 (KM12): 42.2 µM (inactive)
GI50 (A498): 40 µM (inactive)
GI50 (HCC 2998): 31.4 µM (inactive)
GI50 (OVCAR-4): 64.4 µM (inactive)
GI50 (SK-MEL-5): 18 µM (inactive)

CCc1cc2c(cc1C(=O)CCC(=O)O)CC1(C2)Cc2cc(CC)c(C(=O)CCC(=O)O)cc2C1
GI50 (NCI-H460): > 100 µM (inactive)
GI50 (MDA-MB-435): > 100 µM (inactive)
GI50 (HOP-62): > 100 µM (inactive)
GI50 (DU-145): > 100 µM (inactive)
GI50 (SF-268): 82.4 µM (inactive)
GI50 (PC-3): > 100 µM (inactive)
GI50 (SNB-75): 50.5 µM (inactive)
GI50 (IGROV-1): > 100 µM (inactive)
GI50 (M14): > 100 µM (inactive)
GI50 (NCI-H522): > 100 µM (inactive)
GI50 (Hs-578T): > 100 µM (inactive)
GI50 (OVCAR-8): > 100 µM (inactive)
GI50 (OVCAR-5): > 100 µM (inactive)
GI50 (Malme-3M): 38.5 µM (inactive)
GI50 (MOLT-4): > 100 µM (inactive)
GI50 (HCT-116): > 100 µM (inactive)
GI50 (TK-10): > 100 µM (inactive)
GI50 (NCI/ADR-RES): > 100 µM (inactive)
GI50 (SW-620): > 100 µM (inactive)
GI50 (SN12C): > 100 µM (inactive)
GI50 (HCT-15): > 100 µM
GI50 (T47D): > 100 µM (inactive)
GI50 (RPMI-8226): 63.1 µM (inactive)
GI50 (K562): 91.2 µM (inactive)
GI50 (HOP-92): > 100 µM (inactive)
GI50 (SK-MEL-28): 35.6 µM (inactive)
GI50 (COLO 205): > 100 µM (inactive)
GI50 (NCI-H23): > 100 µM (inactive)
GI50 (U-251): > 100 µM (inactive)
GI50 (EKVX): > 100 µM (inactive)
GI50 (ACHN): > 100 µM (inactive)
GI50 (MCF7): > 100 µM (inactive)
GI50 (SF-295): > 100 µM (inactive)
GI50 (MDA-MB-231): > 100 µM (inactive)
GI50 (HT-29): > 100 µM (inactive)
GI50 (RXF 393): > 100 µM (inactive)
GI50 (HL-60): > 100 µM (inactive)
GI50 (CAKI-1): > 100 µM (inactive)
GI50 (MDA-N): > 100 µM (inactive)
GI50 (NCI-H226): > 100 µM (inactive)
GI50 (SK-OV-3): > 100 µM (inactive)
GI50 (786-0): > 100 µM (inactive)
GI50 (SK-MEL-2): 99.8 µM (inactive)
GI50 (OVCAR-3): > 100 µM (inactive)
GI50 (SNB-19): > 100 µM (inactive)
GI50 (UO-31): > 100 µM (inactive)
GI50 (CCRF-CEM): 32.2 µM (inactive)
GI50 (LOX IMVI): > 100 µM (inactive)
GI50 (UACC-257): > 100 µM (inactive)
GI50 (SF-539): > 100 µM (inactive)
GI50 (A549): > 100 µM (inactive)
GI50 (KM12): > 100 µM (inactive)
GI50 (A498): > 100 µM (inactive)
GI50 (HCC 2998): > 100 µM (inactive)
GI50 (OVCAR-4): > 100 µM (inactive)
GI50 (SK-MEL-5): > 100 µM (inactive)
